How the values were obtained:
Beta-secretase 1 = Beta-secretase 1 (Homo sapiens, UniProt P56817); test: Inhibition of BACE1 (unknown origin) expressed in HEK293 cells by FRET assay; format: cell-based
[1] = biological target: Amyloid-beta precursor protein (Homo sapiens) (UniProt P05067); test: Inhibition of amyloid beta (unknown origin) aggregation at 20 uM relative to control
Cholinesterase [2] = biological target: T1, Cholinesterase (Homo sapiens, UniProt P06276); test: Inhibition of BuChE (unknown origin)
T1 sequence (P06276 whole entry): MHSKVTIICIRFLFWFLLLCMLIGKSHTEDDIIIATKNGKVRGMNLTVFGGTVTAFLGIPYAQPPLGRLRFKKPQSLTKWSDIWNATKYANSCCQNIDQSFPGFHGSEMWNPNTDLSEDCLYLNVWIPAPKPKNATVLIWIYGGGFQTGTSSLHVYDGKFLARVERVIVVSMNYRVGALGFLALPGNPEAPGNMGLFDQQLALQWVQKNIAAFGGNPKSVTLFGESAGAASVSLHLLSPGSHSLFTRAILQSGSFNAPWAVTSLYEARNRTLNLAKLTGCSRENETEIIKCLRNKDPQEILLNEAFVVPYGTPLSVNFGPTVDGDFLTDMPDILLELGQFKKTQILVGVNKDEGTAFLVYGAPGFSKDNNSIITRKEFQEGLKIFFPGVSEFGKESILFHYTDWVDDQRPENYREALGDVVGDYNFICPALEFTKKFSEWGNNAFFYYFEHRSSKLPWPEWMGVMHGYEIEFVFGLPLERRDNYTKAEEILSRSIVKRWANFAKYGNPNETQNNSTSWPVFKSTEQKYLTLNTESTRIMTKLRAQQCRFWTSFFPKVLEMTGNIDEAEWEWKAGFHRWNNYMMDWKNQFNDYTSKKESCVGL

Acetylcholinesterase = Acetylcholinesterase (Homo sapiens, UniProt P22303); test: Inhibition of AChE (unknown origin)
Chain of Acetylcholinesterase (P22303 whole entry): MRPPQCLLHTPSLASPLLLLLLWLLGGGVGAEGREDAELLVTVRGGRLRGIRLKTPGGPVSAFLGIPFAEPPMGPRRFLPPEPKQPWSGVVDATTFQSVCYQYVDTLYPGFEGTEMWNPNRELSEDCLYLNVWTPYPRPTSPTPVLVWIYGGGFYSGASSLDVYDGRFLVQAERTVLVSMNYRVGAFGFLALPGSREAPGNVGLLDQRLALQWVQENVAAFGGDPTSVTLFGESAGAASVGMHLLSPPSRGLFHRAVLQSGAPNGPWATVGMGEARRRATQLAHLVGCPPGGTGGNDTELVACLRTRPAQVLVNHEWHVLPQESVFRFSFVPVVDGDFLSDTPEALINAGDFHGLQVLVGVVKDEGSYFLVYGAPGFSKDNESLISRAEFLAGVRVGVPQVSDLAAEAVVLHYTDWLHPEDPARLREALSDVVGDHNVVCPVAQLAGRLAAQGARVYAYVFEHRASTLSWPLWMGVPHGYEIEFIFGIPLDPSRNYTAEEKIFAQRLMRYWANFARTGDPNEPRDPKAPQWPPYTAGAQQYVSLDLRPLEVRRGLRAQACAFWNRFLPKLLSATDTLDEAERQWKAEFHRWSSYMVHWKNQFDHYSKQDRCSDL

[3] = biological target: Amyloid-beta precursor protein (Homo sapiens) (UniProt P05067); test: Inhibition of amyloid beta (unknown origin) aggregation relative to control; conditions: concentration not given here
[4] = biological target: T2, Gamma-aminobutyric acid receptor subunit alpha-2 (Homo sapiens, UniProt P47869); test: Inhibition of GABAA alpha2 receptor (unknown origin)
T2 sequence (P47869 whole entry): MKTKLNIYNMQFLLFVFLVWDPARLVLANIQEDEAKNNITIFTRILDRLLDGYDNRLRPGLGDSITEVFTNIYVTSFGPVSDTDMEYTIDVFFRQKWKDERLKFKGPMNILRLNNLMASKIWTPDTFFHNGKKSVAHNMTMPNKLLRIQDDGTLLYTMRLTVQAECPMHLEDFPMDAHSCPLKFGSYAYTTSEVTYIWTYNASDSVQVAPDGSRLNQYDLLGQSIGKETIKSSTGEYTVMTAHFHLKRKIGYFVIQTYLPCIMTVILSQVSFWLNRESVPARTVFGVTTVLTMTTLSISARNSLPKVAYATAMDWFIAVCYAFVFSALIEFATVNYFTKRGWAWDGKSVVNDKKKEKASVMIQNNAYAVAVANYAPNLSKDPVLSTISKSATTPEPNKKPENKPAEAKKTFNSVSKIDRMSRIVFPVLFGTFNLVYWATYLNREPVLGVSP

[5] = biological target: T3, Gamma-aminobutyric acid receptor subunit alpha-1 (Homo sapiens, UniProt P14867); test: Binding affinity to human recombinant GABAA alpha1 receptor assessed as inhibition constant incubated for 1 hrs by liquid scintillation counting analysis
T3 sequence (P14867 whole entry): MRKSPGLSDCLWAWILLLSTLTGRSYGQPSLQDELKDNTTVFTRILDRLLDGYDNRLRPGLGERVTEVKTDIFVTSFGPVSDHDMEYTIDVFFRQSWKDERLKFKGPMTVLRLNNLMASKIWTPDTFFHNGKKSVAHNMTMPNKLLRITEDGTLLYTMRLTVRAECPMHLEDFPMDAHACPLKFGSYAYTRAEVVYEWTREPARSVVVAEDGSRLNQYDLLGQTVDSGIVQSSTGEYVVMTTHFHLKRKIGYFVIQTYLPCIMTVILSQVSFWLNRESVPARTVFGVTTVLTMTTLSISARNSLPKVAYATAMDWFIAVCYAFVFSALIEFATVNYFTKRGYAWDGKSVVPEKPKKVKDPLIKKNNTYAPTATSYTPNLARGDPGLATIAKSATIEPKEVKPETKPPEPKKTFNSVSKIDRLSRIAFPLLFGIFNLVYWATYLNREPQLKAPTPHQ

[6] = biological target: T4, Gamma-aminobutyric acid receptor subunit alpha-5 (Homo sapiens, UniProt P31644); test: Binding affinity to human recombinant GABAA alpha5 receptor assessed as inhibition constant incubated for 1 hrs by liquid scintillation counting analysis
T4 sequence (P31644 whole entry): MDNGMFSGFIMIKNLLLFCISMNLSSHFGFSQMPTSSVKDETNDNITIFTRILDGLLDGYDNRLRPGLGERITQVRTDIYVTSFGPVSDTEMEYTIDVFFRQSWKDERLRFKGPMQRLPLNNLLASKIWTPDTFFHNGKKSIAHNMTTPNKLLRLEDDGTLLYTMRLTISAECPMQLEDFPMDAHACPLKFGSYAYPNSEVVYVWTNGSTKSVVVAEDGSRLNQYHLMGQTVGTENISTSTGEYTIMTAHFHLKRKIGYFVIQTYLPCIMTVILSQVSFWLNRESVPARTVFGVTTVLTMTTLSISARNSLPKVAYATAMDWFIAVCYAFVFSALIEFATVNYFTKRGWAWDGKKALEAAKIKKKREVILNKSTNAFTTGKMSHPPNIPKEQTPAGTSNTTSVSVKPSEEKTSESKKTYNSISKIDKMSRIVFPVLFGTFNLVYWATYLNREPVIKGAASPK

[7] = biological target: T5, Gamma-aminobutyric acid receptor subunit alpha-3 (Homo sapiens, UniProt P34903); test: Binding affinity to human recombinant GABAA alpha3 receptor assessed as inhibition constant incubated for 1 hrs by liquid scintillation counting analysis
T5 sequence (P34903 whole entry): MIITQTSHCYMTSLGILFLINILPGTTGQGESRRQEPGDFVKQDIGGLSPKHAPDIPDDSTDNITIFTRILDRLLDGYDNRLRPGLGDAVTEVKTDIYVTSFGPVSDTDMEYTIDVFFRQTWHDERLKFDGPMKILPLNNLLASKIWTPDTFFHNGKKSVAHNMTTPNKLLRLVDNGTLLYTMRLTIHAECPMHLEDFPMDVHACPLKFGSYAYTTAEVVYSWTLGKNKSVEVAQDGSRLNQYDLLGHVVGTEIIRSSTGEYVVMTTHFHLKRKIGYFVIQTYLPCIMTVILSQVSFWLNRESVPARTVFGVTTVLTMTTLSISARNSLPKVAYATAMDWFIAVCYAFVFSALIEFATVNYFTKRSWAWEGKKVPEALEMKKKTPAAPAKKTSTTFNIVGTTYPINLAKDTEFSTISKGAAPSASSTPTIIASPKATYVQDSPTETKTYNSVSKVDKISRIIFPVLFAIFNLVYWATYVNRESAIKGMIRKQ

[8] = biological target: T4, Gamma-aminobutyric acid receptor subunit alpha-5; test: Inhibition of GABAA alpha5 receptor (unknown origin)
[9] = biological target: T6, Gamma-aminobutyric acid receptor subunit alpha-6 (Homo sapiens, UniProt Q16445); test: Binding affinity to human recombinant GABAA alpha6 receptor assessed as inhibition constant incubated for 1 hrs by liquid scintillation counting analysis
T6 sequence (Q16445 whole entry): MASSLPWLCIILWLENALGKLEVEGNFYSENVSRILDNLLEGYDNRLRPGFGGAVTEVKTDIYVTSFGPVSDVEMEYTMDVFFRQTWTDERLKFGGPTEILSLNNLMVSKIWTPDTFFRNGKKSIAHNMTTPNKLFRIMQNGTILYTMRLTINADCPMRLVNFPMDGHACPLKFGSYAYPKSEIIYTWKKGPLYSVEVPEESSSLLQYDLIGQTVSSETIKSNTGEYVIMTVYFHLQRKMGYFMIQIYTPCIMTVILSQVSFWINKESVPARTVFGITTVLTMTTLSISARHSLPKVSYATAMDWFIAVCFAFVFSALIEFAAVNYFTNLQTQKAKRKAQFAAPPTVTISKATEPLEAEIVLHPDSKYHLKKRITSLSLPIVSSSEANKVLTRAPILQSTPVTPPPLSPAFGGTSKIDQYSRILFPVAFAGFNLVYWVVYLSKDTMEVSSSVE

[10] = biological target: T3, Gamma-aminobutyric acid receptor subunit alpha-1; test: Inhibition of GABAA alpha1 receptor (unknown origin)
[11] = biological target: T5, Gamma-aminobutyric acid receptor subunit alpha-3; test: Inhibition of GABAA alpha3 receptor (unknown origin)
[12] = biological target: T6, Gamma-aminobutyric acid receptor subunit alpha-6; test: Binding affinity to GABAA alpha6 receptor (unknown origin) assessed as inhibition constant
[13] = biological target: T2, Gamma-aminobutyric acid receptor subunit alpha-2; test: Binding affinity to human recombinant GABAA alpha2 receptor assessed as inhibition constant incubated for 1 hrs by liquid scintillation counting analysis
Cholinesterase [14] = biological target: T1, Cholinesterase; test: Inhibition of BuChE (unknown origin) assessed as inhibition of A-beta aggregation at 100 uM relative to control
[15] = biological target: T7, 5-hydroxytryptamine receptor 3A (Homo sapiens, UniProt P46098); test: Binding affinity to 5-HT3R (unknown origin) assessed as inhibition constant
T7 sequence (P46098 whole entry): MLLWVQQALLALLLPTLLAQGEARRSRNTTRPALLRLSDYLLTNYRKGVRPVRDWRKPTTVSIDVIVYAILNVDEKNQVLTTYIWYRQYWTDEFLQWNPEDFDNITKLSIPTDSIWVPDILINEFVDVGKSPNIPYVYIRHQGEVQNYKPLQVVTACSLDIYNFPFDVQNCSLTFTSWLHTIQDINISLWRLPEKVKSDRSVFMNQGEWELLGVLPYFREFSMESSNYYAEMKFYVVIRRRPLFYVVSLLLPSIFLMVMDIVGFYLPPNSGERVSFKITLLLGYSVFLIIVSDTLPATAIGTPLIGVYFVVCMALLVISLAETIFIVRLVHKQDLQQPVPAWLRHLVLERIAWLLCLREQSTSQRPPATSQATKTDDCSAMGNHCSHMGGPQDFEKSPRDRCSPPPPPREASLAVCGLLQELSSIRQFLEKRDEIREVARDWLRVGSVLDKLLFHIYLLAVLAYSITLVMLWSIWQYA

[16] = biological target: 5-hydroxytryptamine receptor 1A (Homo sapiens, UniProt P08908); test: Displacement of […] from human 5-HT1A expressed in human HEK cells assessed as inhibition constant by FLIPR assay; format: cell-based
Chain of 5-hydroxytryptamine receptor 1A (P08908 whole entry): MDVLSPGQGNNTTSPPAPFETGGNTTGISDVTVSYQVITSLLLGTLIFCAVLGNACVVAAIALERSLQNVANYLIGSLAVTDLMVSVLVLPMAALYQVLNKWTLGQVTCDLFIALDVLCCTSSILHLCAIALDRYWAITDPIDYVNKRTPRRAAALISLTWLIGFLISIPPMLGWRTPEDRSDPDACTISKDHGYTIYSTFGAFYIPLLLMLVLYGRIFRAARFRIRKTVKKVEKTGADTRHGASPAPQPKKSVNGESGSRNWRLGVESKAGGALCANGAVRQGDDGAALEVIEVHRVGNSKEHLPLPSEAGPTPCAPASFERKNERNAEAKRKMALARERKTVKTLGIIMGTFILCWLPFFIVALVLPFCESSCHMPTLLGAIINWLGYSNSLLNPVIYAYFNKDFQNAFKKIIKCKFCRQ

[17] = biological target: 5-hydroxytryptamine receptor 2A (Homo sapiens, UniProt P28223); test: Displacement of [3H]-LSD from human 5-HT2A expressed in human HEK cells assessed as inhibition constant by FLIPR assay; format: cell-based
Chain of 5-hydroxytryptamine receptor 2A (P28223 whole entry): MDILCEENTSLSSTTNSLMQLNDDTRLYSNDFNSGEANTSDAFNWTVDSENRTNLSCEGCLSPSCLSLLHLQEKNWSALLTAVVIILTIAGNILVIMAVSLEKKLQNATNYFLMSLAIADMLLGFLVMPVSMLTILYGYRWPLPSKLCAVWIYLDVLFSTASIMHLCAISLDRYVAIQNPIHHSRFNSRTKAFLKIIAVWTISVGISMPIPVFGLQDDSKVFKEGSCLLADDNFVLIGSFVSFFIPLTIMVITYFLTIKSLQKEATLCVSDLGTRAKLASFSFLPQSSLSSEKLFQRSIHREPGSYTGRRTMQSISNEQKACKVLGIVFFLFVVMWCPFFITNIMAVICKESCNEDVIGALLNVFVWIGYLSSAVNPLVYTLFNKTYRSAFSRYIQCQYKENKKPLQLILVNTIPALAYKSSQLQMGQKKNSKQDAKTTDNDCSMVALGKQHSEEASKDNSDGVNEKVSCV

[18] = biological target: cGMP-specific 3',5'-cyclic phosphodiesterase (Homo sapiens, UniProt O76074); test: Inhibition of PDE5 (unknown origin)
[19] = biological target: T8, Protein deacetylase HDAC6 (Homo sapiens, UniProt Q9UBN7); test: Inhibition of HDAC6 (unknown origin)
T8 sequence (Q9UBN7 whole entry): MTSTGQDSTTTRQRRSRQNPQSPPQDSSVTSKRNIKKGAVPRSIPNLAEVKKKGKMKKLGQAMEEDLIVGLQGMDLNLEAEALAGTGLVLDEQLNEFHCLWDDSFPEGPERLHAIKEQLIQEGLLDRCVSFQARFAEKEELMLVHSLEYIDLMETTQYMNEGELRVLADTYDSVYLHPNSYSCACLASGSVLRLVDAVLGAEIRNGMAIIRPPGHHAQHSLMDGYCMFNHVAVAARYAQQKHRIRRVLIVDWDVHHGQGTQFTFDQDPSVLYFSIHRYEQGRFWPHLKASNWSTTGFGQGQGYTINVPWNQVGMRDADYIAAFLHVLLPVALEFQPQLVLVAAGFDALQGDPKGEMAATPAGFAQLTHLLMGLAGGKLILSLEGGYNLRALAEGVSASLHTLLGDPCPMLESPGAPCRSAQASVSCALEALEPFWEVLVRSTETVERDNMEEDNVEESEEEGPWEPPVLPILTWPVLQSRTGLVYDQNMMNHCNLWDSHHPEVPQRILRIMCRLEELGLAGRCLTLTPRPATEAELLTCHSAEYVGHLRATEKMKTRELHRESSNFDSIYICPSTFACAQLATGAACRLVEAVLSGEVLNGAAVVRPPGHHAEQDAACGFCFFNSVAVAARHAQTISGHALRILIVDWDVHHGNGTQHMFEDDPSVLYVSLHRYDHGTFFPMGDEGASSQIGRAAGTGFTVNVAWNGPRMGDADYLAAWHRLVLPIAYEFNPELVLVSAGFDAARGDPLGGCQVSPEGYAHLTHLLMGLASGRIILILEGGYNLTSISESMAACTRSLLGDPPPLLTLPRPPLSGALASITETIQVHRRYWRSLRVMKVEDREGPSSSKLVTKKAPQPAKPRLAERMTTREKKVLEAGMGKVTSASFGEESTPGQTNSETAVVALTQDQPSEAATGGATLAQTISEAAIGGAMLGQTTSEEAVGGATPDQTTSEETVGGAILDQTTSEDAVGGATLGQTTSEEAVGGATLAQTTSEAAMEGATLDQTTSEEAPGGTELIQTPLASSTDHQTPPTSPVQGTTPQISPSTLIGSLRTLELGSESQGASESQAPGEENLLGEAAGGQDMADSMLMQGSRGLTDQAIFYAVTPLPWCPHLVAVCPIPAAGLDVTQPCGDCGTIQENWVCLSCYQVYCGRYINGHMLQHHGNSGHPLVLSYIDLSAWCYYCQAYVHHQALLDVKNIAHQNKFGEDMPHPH

Histone deacetylase 2 = Histone deacetylase 2 (Homo sapiens, UniProt Q92769); test: Inhibition of HDAC2 (unknown origin)
Chain of Histone deacetylase 2 (Q92769 whole entry): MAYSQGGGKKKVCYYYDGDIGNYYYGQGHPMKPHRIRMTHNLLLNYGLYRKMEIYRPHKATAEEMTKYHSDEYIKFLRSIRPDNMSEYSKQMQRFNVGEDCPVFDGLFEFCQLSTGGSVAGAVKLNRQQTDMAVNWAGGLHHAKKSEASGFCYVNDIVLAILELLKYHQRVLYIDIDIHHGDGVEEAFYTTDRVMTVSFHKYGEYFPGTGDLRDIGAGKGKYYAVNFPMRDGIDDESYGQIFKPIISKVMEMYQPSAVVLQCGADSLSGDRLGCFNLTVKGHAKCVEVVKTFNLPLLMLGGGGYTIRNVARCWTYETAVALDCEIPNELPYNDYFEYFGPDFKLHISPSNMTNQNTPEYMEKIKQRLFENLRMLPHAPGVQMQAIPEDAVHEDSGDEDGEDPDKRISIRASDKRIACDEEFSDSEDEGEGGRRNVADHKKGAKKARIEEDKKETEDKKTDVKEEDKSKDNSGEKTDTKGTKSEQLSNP

Histone deacetylase 1 = Histone deacetylase 1 (Homo sapiens, UniProt Q13547); test: Inhibition of HDAC1 (unknown origin)
Chain of Histone deacetylase 1 (Q13547 whole entry): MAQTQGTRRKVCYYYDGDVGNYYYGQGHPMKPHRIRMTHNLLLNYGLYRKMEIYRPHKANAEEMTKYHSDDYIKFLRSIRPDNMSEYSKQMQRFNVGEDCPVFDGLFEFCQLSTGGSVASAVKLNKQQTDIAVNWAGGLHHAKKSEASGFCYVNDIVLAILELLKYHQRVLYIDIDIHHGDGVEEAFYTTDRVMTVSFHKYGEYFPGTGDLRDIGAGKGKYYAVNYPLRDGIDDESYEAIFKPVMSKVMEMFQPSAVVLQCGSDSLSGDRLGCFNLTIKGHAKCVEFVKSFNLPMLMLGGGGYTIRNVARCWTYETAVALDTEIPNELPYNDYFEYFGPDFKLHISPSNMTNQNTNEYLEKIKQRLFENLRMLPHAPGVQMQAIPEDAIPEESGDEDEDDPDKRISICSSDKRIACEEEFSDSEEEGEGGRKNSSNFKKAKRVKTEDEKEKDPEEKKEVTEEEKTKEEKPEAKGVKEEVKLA

Chain of Amyloid-beta precursor protein (Homo sapiens) (P05067 whole entry): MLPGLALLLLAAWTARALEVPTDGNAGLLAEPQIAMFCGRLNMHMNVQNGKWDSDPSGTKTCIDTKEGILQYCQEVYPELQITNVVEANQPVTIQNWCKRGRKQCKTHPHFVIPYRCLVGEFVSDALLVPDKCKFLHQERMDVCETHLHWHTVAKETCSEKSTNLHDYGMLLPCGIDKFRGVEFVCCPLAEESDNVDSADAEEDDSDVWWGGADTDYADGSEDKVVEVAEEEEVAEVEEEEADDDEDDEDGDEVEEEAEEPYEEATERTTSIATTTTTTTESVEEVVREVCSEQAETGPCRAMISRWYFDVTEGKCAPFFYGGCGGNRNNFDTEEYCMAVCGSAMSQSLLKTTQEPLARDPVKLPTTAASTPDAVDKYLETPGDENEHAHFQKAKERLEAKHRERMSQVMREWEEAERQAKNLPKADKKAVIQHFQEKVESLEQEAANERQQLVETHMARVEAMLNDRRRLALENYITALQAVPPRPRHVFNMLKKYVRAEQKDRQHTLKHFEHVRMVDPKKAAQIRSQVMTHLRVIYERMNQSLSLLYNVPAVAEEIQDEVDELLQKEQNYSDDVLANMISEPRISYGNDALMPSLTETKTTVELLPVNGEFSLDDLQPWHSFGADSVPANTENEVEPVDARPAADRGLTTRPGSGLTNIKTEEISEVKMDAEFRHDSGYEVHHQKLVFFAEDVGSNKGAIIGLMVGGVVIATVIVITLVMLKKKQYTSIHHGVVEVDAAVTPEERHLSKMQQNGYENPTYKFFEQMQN
Chain of Beta-secretase 1 (P56817 whole entry): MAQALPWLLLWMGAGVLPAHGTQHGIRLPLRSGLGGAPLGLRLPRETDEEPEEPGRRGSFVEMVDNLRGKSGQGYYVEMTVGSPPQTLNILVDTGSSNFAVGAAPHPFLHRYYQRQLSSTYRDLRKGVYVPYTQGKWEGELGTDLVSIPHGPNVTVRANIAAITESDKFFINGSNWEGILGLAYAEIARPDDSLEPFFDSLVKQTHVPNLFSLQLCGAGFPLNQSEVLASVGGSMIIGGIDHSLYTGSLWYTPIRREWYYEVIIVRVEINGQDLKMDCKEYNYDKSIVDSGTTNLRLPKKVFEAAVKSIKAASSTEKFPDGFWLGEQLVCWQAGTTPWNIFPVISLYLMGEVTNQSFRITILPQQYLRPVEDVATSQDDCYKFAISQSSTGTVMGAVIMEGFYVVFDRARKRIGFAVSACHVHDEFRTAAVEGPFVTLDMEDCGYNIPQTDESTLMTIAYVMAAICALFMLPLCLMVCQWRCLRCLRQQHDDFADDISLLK

**Q.** How did the IC50 (Beta-secretase 1) turn out when `OC[C@@H]1Cc2c([nH]c3ccccc23)CN1Cc1cn(C[C@@H]2Cc3c([nH]c4ccccc34)CN2)nn1` was run?
**A.** Its IC50 is 17000 nM.

**Q.** How did the inhibition [1] turn out when `CC1c2[nH]c3ccccc3c2CCN1C(=O)/C=C/c1ccc(O)c(O)c1` (centres undefined) was run?
**A.** The inhibition was 72%.

**Q.** What about the IC50 (Cholinesterase [2]) of the same compound?
**A.** Its IC50 is 1300 nM.

**Q.** And the IC50 (Acetylcholinesterase)?
**A.** Its IC50 is 21000 nM.

**Q.** `O=C(/C=C/c1ccc(O)c(O)c1)NCc1cn(C[C@@H]2Cc3c([nH]c4ccccc34)CN2)nn1` was tested. Which inhibition [3] did it give?
**A.** The inhibition was 30%.

**Q.** What about the IC50 (Beta-secretase 1) of the same compound?
**A.** Its IC50 is > 50000 nM.

**Q.** How did the IC50 [4] turn out when `c1ccc2c(c1)[nH]c1cnc3c4ccncc4[nH]c3c12` was run?
**A.** Its IC50 is 24 nM.

**Q.** And the Ki [5]?
**A.** The Ki was 3 nM.

**Q.** And the Ki [6]?
**A.** The Ki was 240 nM.

**Q.** What about the Ki [7] of the same compound?
**A.** The Ki was 31 nM.

**Q.** What about the IC50 [8] of the same compound?
**A.** The IC50 was 240 nM.

**Q.** What about the Ki [9] of the same compound?
**A.** Its Ki is > 10000 nM.

**Q.** What about the IC50 [10] of the same compound?
**A.** The IC50 was 3 nM.

**Q.** And the IC50 [11]?
**A.** The IC50 was 31 nM.

**Q.** And the Ki [12]?
**A.** The Ki was > 10000 nM.

**Q.** What about the Ki [13] of the same compound?
**A.** Its Ki is 24 nM.

**Q.** `Cc1ccc2[nH]c3c4[n+](ccc3c2c1)-c1ccccc1C4=O` was tested. Which inhibition (Cholinesterase [14]) did it give?
**A.** The inhibition was 38%.

**Q.** What does the source list for `CC1=NCCc2c1[nH]c1ccccc21`?
**A.** Ki [15]: > 10000 nM; Ki [16]: 1700 nM; Ki [17]: 990 nM

**Q.** Which IC50 [18] does the source give for `O=C(CCCN1CCC(N2CC(=O)N3C(Cc4c([nH]c5ccccc45)C3c3ccc4c(c3)OCO4)C2=O)CC1)NO` (centres undefined) here?
**A.** Its IC50 is 140 nM.

**Q.** And the IC50 [19]?
**A.** Its IC50 is > 2500 nM.

**Q.** What about the IC50 (Histone deacetylase 2) of the same compound?
**A.** Its IC50 is > 2500 nM.

**Q.** What about the IC50 (Histone deacetylase 1) of the same compound?
**A.** The IC50 was > 2500 nM.
